# Test system: 857933-349-R-J2-PDC complex spheroid viability
# Test: Anticancer human tumor 857933-349-R-J2-PDC patient-derived colon adenocarcinoma cell line growth inhibition [POLQ]
# Conditions: for IC50: curve of first compound; for viability, T/C: stronger effect = lower value
# In short: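 PDC + HUVEC + MSC complex spheroids; POLQ inhibitors ± partner drugs; top conc. at/near clinical Cmax, else 10 microM (SN-38 1 microM), half-log dilutions; 37 degrees C, 5% CO2.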
# [1] = second compound 0.0316 µM, first compound 0.0316 µM
# [2] = second compound 0.0316 µM, first compound 0.1 µM
# [3] = second compound 0.0316 µM, first compound 0.316 µM
# [4] = second compound 0.0316 µM, first compound 1 µM
# [5] = second compound 0.0316 µM, first compound 3.16 µM
# [6] = second compound 0.0316 µM, first compound 10 µM
# [7] = second compound 0.1 µM, first compound 0.0316 µM
# [8] = second compound 0.1 µM, first compound 0.1 µM
# [9] = second compound 0.1 µM, first compound 0.316 µM
# [10] = second compound 0.1 µM, first compound 1 µM
# [11] = second compound 0.1 µM, first compound 3.16 µM
# [12] = second compound 0.1 µM, first compound 10 µM
# [13] = second compound 0.316 µM, first compound 0.0316 µM
# [14] = second compound 0.316 µM, first compound 0.1 µM
# [15] = second compound 0.316 µM, first compound 0.316 µM
# [16] = second compound 0.316 µM, first compound 1 µM
# [17] = second compound 0.316 µM, first compound 3.16 µM
# [18] = second compound 0.316 µM, first compound 10 µM
# [19] = second compound 1 µM, first compound 0.0316 µM
# [20] = second compound 1 µM, first compound 0.1 µM
# [21] = second compound 1 µM, first compound 0.316 µM
# [22] = second compound 1 µM, first compound 1 µM
# [23] = second compound 1 µM, first compound 3.16 µM
# [24] = second compound 1 µM, first compound 10 µM
# [25] = second compound 3.16 µM, first compound 0.0316 µM
# [26] = second compound 3.16 µM, first compound 0.1 µM
# [27] = second compound 3.16 µM, first compound 0.316 µM
# [28] = second compound 3.16 µM, first compound 1 µM
# [29] = second compound 3.16 µM, first compound 3.16 µM
# [30] = second compound 3.16 µM, first compound 10 µM
# [31] = second compound 10 µM, first compound 0.0316 µM
# [32] = second compound 10 µM, first compound 0.1 µM
# [33] = second compound 10 µM, first compound 0.316 µM
# [34] = second compound 10 µM, first compound 1 µM
# [35] = second compound 10 µM, first compound 3.16 µM
# [36] = second compound 10 µM, first compound 10 µM
# 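Note: spheroids exposed to compounds for seven days before readout.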
smiles,measurement,setting,value
CCc1cc2c(N3CCc4c(cc(Cn5ccnc5)cc4-c4cn(C)nc4C(F)(F)F)C3=O)cc(C)nc2c(OC)n1 + Nc1ccc(C#CCN(C(=O)Cc2ncc(C(F)(F)F)cc2C(F)(F)F)c2ccc(F)cc2)nn1,IC50,second compound 0.0316 µM,> 10000 nM
same,IC50,second compound 0.1 µM,> 10000 nM
same,IC50,second compound 0.316 µM,> 10000 nM
same,IC50,second compound 1 µM,> 10000 nM
same,IC50,second compound 3.16 µM,> 10000 nM
same,IC50,second compound 10 µM,> 10000 nM
same,"viability, T/C",[1],94.9%
same,"viability, T/C",[2],92.8%
same,"viability, T/C",[3],80.3%
same,"viability, T/C",[4],79.8%
same,"viability, T/C",[5],67.4%
same,"viability, T/C",[6],62.8%
same,"viability, T/C",[7],92%
same,"viability, T/C",[8],101%
same,"viability, T/C",[9],76.2%
same,"viability, T/C",[10],73.5%
same,"viability, T/C",[11],77.7%
same,"viability, T/C",[12],55.1%
same,"viability, T/C",[13],89%
same,"viability, T/C",[14],86.8%
same,"viability, T/C",[15],86.5%
same,"viability, T/C",[16],81%
same,"viability, T/C",[17],65.7%
same,"viability, T/C",[18],57.1%
same,"viability, T/C",[19],95.9%
same,"viability, T/C",[20],96.9%
same,"viability, T/C",[21],86.8%
same,"viability, T/C",[22],78.8%
same,"viability, T/C",[23],75.3%
same,"viability, T/C",[24],51.4%
same,"viability, T/C",[25],87.8%
same,"viability, T/C",[26],87%
same,"viability, T/C",[27],97.7%
same,"viability, T/C",[28],69.3%
same,"viability, T/C",[29],64.3%
same,"viability, T/C",[30],59.5%
same,"viability, T/C",[31],90.2%
same,"viability, T/C",[32],78.5%
same,"viability, T/C",[33],75%
same,"viability, T/C",[34],65.5%
same,"viability, T/C",[35],53.5%
same,"viability, T/C",[36],53.4%
O=c1[nH]cc(F)c(=O)[nH]1 + COC1C(OC(N)=O)C(O)C(Oc2ccc3c(O)c(NC(=O)c4ccc(O)c(CC=C(C)C)c4)c(=O)oc3c2C)OC1(C)C,IC50,second compound 0.0316 µM,1960 nM
same,IC50,second compound 0.1 µM,1640 nM
same,IC50,second compound 0.316 µM,2270 nM
same,IC50,second compound 1 µM,2220 nM
same,IC50,second compound 3.16 µM,2760 nM
same,IC50,second compound 10 µM,2560 nM
same,"viability, T/C",[1],81.7%
same,"viability, T/C",[2],110%
same,"viability, T/C",[3],125%
same,"viability, T/C",[4],71.1%
same,"viability, T/C",[5],45.5%
same,"viability, T/C",[6],24.6%
same,"viability, T/C",[7],87.3%
same,"viability, T/C",[8],91.5%
same,"viability, T/C",[9],92.2%
same,"viability, T/C",[10],58.1%
same,"viability, T/C",[11],44.7%
same,"viability, T/C",[12],30.3%
same,"viability, T/C",[13],99.3%
same,"viability, T/C",[14],87.2%
same,"viability, T/C",[15],88.8%
same,"viability, T/C",[16],70.9%
same,"viability, T/C",[17],41%
same,"viability, T/C",[18],28.4%
same,"viability, T/C",[19],109%
same,"viability, T/C",[20],92.1%
same,"viability, T/C",[21],97.3%
same,"viability, T/C",[22],63.8%
same,"viability, T/C",[23],44.5%
same,"viability, T/C",[24],30%
same,"viability, T/C",[25],79.7%
same,"viability, T/C",[26],86.3%
same,"viability, T/C",[27],82.3%
same,"viability, T/C",[28],85.3%
same,"viability, T/C",[29],45.5%
same,"viability, T/C",[30],29.3%
same,"viability, T/C",[31],108%
same,"viability, T/C",[32],74.4%
same,"viability, T/C",[33],76.3%
same,"viability, T/C",[34],76.2%
same,"viability, T/C",[35],42.2%
same,"viability, T/C",[36],29.3%
COc1cccc(OCCCN)c1-c1cc(Nc2cnc(C#N)cn2)n[nH]1 + Cc1cccc(N(C)C(=O)C2C(O)CCN2c2nc(C)cc(C(F)(F)F)c2C#N)c1,IC50,second compound 0.0316 µM,763 nM
same,IC50,second compound 0.1 µM,> 1000 nM
same,IC50,second compound 0.316 µM,> 1000 nM
same,IC50,second compound 1 µM,> 1000 nM
same,IC50,second compound 3.16 µM,511 nM
same,IC50,second compound 10 µM,> 1000 nM
same,"viability, T/C","second compound 0.0316 µM, first compound 0.00316 µM",96.2%
same,"viability, T/C","second compound 0.0316 µM, first compound 0.01 µM",94.5%
same,"viability, T/C",[1],97%
same,"viability, T/C",[2],86.9%
same,"viability, T/C",[3],64.6%
same,"viability, T/C",[4],45.5%
same,"viability, T/C","second compound 0.1 µM, first compound 0.00316 µM",105%
same,"viability, T/C","second compound 0.1 µM, first compound 0.01 µM",84.2%
same,"viability, T/C",[7],89.2%
same,"viability, T/C",[8],73%
same,"viability, T/C",[9],66.3%
same,"viability, T/C",[10],50.7%
same,"viability, T/C","second compound 0.316 µM, first compound 0.00316 µM",102%
same,"viability, T/C","second compound 0.316 µM, first compound 0.01 µM",99.8%
same,"viability, T/C",[13],90.9%
same,"viability, T/C",[14],56.8%
same,"viability, T/C",[15],61%
same,"viability, T/C",[16],55.5%
same,"viability, T/C","second compound 1 µM, first compound 0.00316 µM",110%
same,"viability, T/C","second compound 1 µM, first compound 0.01 µM",96.3%
same,"viability, T/C",[19],85.6%
same,"viability, T/C",[20],83%
same,"viability, T/C",[21],56.4%
same,"viability, T/C",[22],52.9%
same,"viability, T/C","second compound 3.16 µM, first compound 0.00316 µM",98.7%
same,"viability, T/C","second compound 3.16 µM, first compound 0.01 µM",110%
same,"viability, T/C",[25],81.8%
same,"viability, T/C",[26],69.6%
same,"viability, T/C",[27],59.9%
same,"viability, T/C",[28],40.7%
same,"viability, T/C","second compound 10 µM, first compound 0.00316 µM",90.8%
same,"viability, T/C","second compound 10 µM, first compound 0.01 µM",86.5%
same,"viability, T/C",[31],77.4%
same,"viability, T/C",[32],67.9%
same,"viability, T/C",[33],61.2%
same,"viability, T/C",[34],52.5%
CNCc1ccc(-c2[nH]c3cc(F)cc4c3c2CCNC4=O)cc1 + Cc1cccc(N(C)C(=O)C2C(O)CCN2c2nc(C)cc(C(F)(F)F)c2C#N)c1,IC50,second compound 0.0316 µM,> 10000 nM
same,IC50,second compound 0.1 µM,> 10000 nM
same,IC50,second compound 0.316 µM,> 10000 nM
same,IC50,second compound 1 µM,> 10000 nM
same,IC50,second compound 3.16 µM,> 10000 nM
same,IC50,second compound 10 µM,> 10000 nM
same,"viability, T/C",[1],98.9%
same,"viability, T/C",[2],111%
same,"viability, T/C",[3],96.3%
same,"viability, T/C",[4],99.2%
same,"viability, T/C",[5],78.9%
same,"viability, T/C",[6],99.7%
same,"viability, T/C",[7],103%
same,"viability, T/C",[8],90.7%
same,"viability, T/C",[9],90.7%
same,"viability, T/C",[10],76.4%
same,"viability, T/C",[11],102%
same,"viability, T/C",[12],104%
same,"viability, T/C",[13],97.3%
same,"viability, T/C",[14],104%
same,"viability, T/C",[15],108%
same,"viability, T/C",[16],95.5%
same,"viability, T/C",[17],103%
same,"viability, T/C",[18],89.5%
same,"viability, T/C",[19],120%
same,"viability, T/C",[20],98.5%
same,"viability, T/C",[21],90.7%
same,"viability, T/C",[22],86.5%
same,"viability, T/C",[23],104%
same,"viability, T/C",[24],79.3%
same,"viability, T/C",[25],88.7%
same,"viability, T/C",[26],112%
same,"viability, T/C",[27],95.7%
same,"viability, T/C",[28],105%
same,"viability, T/C",[29],95.4%
same,"viability, T/C",[30],80.5%
same,"viability, T/C",[31],102%
same,"viability, T/C",[32],106%
same,"viability, T/C",[33],117%
same,"viability, T/C",[34],68.4%
same,"viability, T/C",[35],116%
same,"viability, T/C",[36],86.3%

# Source: PubChem BioAssay AID1963836 (Molecular Pharmacology Branch, DTP, NCI, 2024)
